Results as given in PubChem BioAssay AID1919006 (Molecular Pharmacology Branch, DTP, NCI, 2023).
Each block holds one molecule with its values, some of them ahead of it.

System: 885512-296-R-J2-PDC complex spheroid growth, % test/control
Assay: Anticancer human tumor 885512-296-R-J2-PDC patient-derived breast carcinoma cell line growth inhibition [AhR]
Settings: for IC50: curve of first compound; for viability, T/C: stronger effect = lower value
From the text: Multicellular complex tumor spheroid response to aryl hydrocarbon receptor antagonists in combination with a variety of drugs and investigational agents in selected tumor cell lines
The current study was undertaken to assess response to aryl hydrocarbon receptor antagonists in combination with standard-of-care drugs and investigational agents in solid tumor complex spheroid models. Complex spheroids include a stromal component modeled by human endothelial cells (HUVEC) and fibroblasts modeled by human mesenchymal stem cells (MSCs). The concentration ranges selected for each drug and investigational agent were based upon clinically achievable concentrations if the clinical Cmax of the agent was known.
Compounds. The drugs and investigational agents: BAY 2416964 (NSC825713), GNF351 (NSC835774), CH-223191 (NSC835775), CPI-455 (NSC825282), aza-TdCyd (NSC777586), decitabine (NSC127716), belinostat (NSC758774), entinostat (NSC756642), pevonedistat (NSC761192), tazemetostat (NSC777109), talazoparib (NSC765396), olaparib (NSC753686), selinexor (NSC780203), nedisertib (M3814, NSC802822), bortezomib (NSC756655), venetoclax (NSC766270), doxorubicin (NSC123127), elimusertib (BAY189344, NSC800525), ceralasertib (AZD6738, NSC777638), TAK-243 (NSC785004), alisertib (NSC759677), etoposide (NSC141540), topotecan (NSC609699), eribulin (NSC707389), gemcitabine (NSC613327), carboplatin (NSC241240), cisplatin (NSC119875), and SN-38 (NSC673596) were obtained from the National Cancer Institute (NCI) Developmental Therapeutics Program Chemical Repository (32). The FDA-approved anticancer drug set is available from the Developmental Therapeutics Program at https://dtp.cancer.gov/organization/dscb/obtaining/available plates.htm. […] The stock solutions were prepared in dimethyl sulfoxide (DMSO, Sigma-Aldrich, St. Louis, MO, cat. D2650), except for the platinum compounds which were prepared in saline (Quality Biological, Gaithersburg, MD, cat. 114-055-101), at 800-fold the tested concentration and stored at -70 degrees C prior to their use. All drugs and investigational agents were tested over a range starting from a high concentration at or near the clinical Cmax and decreasing in half-log increments. If the clinical Cmax for an agent had not been determined, the highest concentration tested was 10 microM (Table 1).
Cell Culture. All cells were maintained in an incubator at 37 degrees C and 5% CO2 with 95% humidity. The PDC lines were cultured according to standard operating procedures established by the NCI PDMR (https://pdmr.cancer.gov). Briefly, all PDCs were thawed and cultured in Matrigel-coated flasks prepared with a working solution of 1X Ham's F-12 nutrient mix, without supplementation (Invitrogen, Waltham, MA, cat. 11765054), 100 U/mL penicillin-streptomycin (Invitrogen, cat. 15140122), and 2.5% Matrigel (Corning Inc., Corning, NY, cat. 354248) for the first three passages. All PDCs were cultured in complete DMEM/F-12 media containing advanced DMEM/F-12 (Invitrogen, cat. 12634028), 4.9% defined fetal bovine serum, heat inactivated (HyClone Laboratories Inc., Logan, UT, cat. SH30070.03HI), 389 ng/mL hydrocortisone (Sigma-Aldrich, cat. H4001), 9.7 ng/mL human EGF recombinant protein (Invitrogen, cat. PHG0313), 23.4 microg/mL adenine (Sigma-Aldrich, cat. A2786), 97.3 U/mL penicillin-streptomycin (Invitrogen, cat. 15140122), 1.9 mM L-glutamine (Invitrogen, cat. 25030081), and 9.7 microM Y-27632 dihydrochloride (Tocris Bioscience, Bristol, United Kingdom, cat. 1254). The PDCs were cultured in complete DMEM/F12 media without 10 microM Y-27632 dihydrochloride for at least two passages prior to the screen. The established cell lines NCI-H1341 and […] were cultured in DMEM/F-12, HEPES (Invitrogen, cat. 11330032), 5% defined fetal bovine serum (HyClone Laboratories Inc., cat. SH30070.03), ITS premix universal culture supplement [insulin (5 microg/mL), transferrin (5 microg/mL), and selenious acid (5 ng/mL)] […]

[1] = second compound 0.1 µM, first compound 0.0316 µM
[2] = second compound 0.1 µM, first compound 0.1 µM
[3] = second compound 0.1 µM, first compound 0.316 µM
[4] = second compound 0.1 µM, first compound 1 µM
[5] = second compound 0.1 µM, first compound 3.16 µM
[6] = second compound 0.1 µM, first compound 10 µM
[7] = second compound 0.316 µM, first compound 0.0316 µM
[8] = second compound 0.316 µM, first compound 0.1 µM
[9] = second compound 0.316 µM, first compound 0.316 µM
[10] = second compound 0.316 µM, first compound 1 µM
[11] = second compound 0.316 µM, first compound 3.16 µM
[12] = second compound 0.316 µM, first compound 10 µM
[13] = second compound 1 µM, first compound 0.0316 µM
[14] = second compound 1 µM, first compound 0.1 µM
[15] = second compound 1 µM, first compound 0.316 µM
[16] = second compound 1 µM, first compound 1 µM
[17] = second compound 1 µM, first compound 3.16 µM
[18] = second compound 1 µM, first compound 10 µM
[19] = second compound 3.16 µM, first compound 0.0316 µM
[20] = second compound 3.16 µM, first compound 0.1 µM
[21] = second compound 3.16 µM, first compound 0.316 µM
[22] = second compound 3.16 µM, first compound 1 µM
[23] = second compound 3.16 µM, first compound 3.16 µM
[24] = second compound 3.16 µM, first compound 10 µM
[25] = second compound 10 µM, first compound 0.0316 µM
[26] = second compound 10 µM, first compound 0.1 µM
[27] = second compound 10 µM, first compound 0.316 µM
[28] = second compound 10 µM, first compound 1 µM
[29] = second compound 10 µM, first compound 3.16 µM
[30] = second compound 10 µM, first compound 10 µM
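Note: spheroids exposed to compounds for seven days.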

- IC50 (second compound 0.1 µM): < 0.000949 µM
- IC50 (second compound 0.316 µM): < 0.000949 µM
- IC50 (second compound 1 µM): < 0.000949 µM
- IC50 (second compound 3.16 µM): < 0.000949 µM
- IC50 (second compound 10 µM): < 0.000949 µM
SMILES: CCc1c2c(nc3ccc(O)cc13)-c1cc3c(c(=O)n1C2)COC(=O)[C@]3(O)CC + CC(CO)NC(=O)c1cc(-c2ccc(Cl)cc2)nn(-c2cnn(C)c2)c1=O
- viability, T/C (second compound 0.1 µM, first compound 0.000949 µM): 9.08%
- viability, T/C (second compound 0.1 µM, first compound 0.003 µM): 7.28%
- viability, T/C (second compound 0.1 µM, first compound 0.00949 µM): 5.78%
- viability, T/C (second compound 0.1 µM, first compound 0.03 µM): 3.29%
- viability, T/C (second compound 0.1 µM, first compound 0.0949 µM): 2.16%
- viability, T/C (second compound 0.1 µM, first compound 0.3 µM): 1.46%
- viability, T/C (second compound 0.316 µM, first compound 0.000949 µM): 8.34%
- viability, T/C (second compound 0.316 µM, first compound 0.003 µM): 6.02%
- viability, T/C (second compound 0.316 µM, first compound 0.00949 µM): 3.71%
- viability, T/C (second compound 0.316 µM, first compound 0.03 µM): 3.2%
- viability, T/C (second compound 0.316 µM, first compound 0.0949 µM): 1.99%
- viability, T/C (second compound 0.316 µM, first compound 0.3 µM): 1.09%
- viability, T/C (second compound 1 µM, first compound 0.000949 µM): 10.7%
- viability, T/C (second compound 1 µM, first compound 0.003 µM): 7.68%
- viability, T/C (second compound 1 µM, first compound 0.00949 µM): 4.79%
- viability, T/C (second compound 1 µM, first compound 0.03 µM): 3.71%
- viability, T/C (second compound 1 µM, first compound 0.0949 µM): 2.42%
- viability, T/C (second compound 1 µM, first compound 0.3 µM): 1.92%
- viability, T/C (second compound 3.16 µM, first compound 0.000949 µM): 10.8%
- viability, T/C (second compound 3.16 µM, first compound 0.003 µM): 9.5%
- viability, T/C (second compound 3.16 µM, first compound 0.00949 µM): 4.77%
- viability, T/C (second compound 3.16 µM, first compound 0.03 µM): 4.01%
- viability, T/C (second compound 3.16 µM, first compound 0.0949 µM): 2.56%
- viability, T/C (second compound 3.16 µM, first compound 0.3 µM): 2.05%
- viability, T/C (second compound 10 µM, first compound 0.000949 µM): 13.8%
- viability, T/C (second compound 10 µM, first compound 0.003 µM): 12.5%
- viability, T/C (second compound 10 µM, first compound 0.00949 µM): 6.57%
- viability, T/C (second compound 10 µM, first compound 0.03 µM): 4.99%
- viability, T/C (second compound 10 µM, first compound 0.0949 µM): 2.67%
- viability, T/C (second compound 10 µM, first compound 0.3 µM): 2.21%

- IC50 (second compound 0.1 µM): < 0.0316 µM
- IC50 (second compound 0.316 µM): < 0.0316 µM
- IC50 (second compound 1 µM): < 0.0316 µM
- IC50 (second compound 3.16 µM): < 0.0316 µM
- IC50 (second compound 10 µM): < 0.0316 µM
SMILES: Nc1ccn(C2OC(CO)C(O)C2(F)F)c(=O)n1 (stereo not given) + CC(CO)NC(=O)c1cc(-c2ccc(Cl)cc2)nn(-c2cnn(C)c2)c1=O
- viability, T/C [1]: 2.76%
- viability, T/C [2]: 3%
- viability, T/C [3]: 3.87%
- viability, T/C [4]: 4.14%
- viability, T/C [5]: 4.54%
- viability, T/C [6]: 3.83%
- viability, T/C [7]: 3.69%
- viability, T/C [8]: 3.44%
- viability, T/C [9]: 2.94%
- viability, T/C [10]: 4.15%
- viability, T/C [11]: 4.75%
- viability, T/C [12]: 4.18%
- viability, T/C [13]: 2.96%
- viability, T/C [14]: 3.26%
- viability, T/C [15]: 3.72%
- viability, T/C [16]: 3.82%
- viability, T/C [17]: 5.38%
- viability, T/C [18]: 4.22%
- viability, T/C [19]: 3.18%
- viability, T/C [20]: 2.97%
- viability, T/C [21]: 3.84%
- viability, T/C [22]: 3.9%
- viability, T/C [23]: 4.31%
- viability, T/C [24]: 4.48%
- viability, T/C [25]: 6.37%
- viability, T/C [26]: 5.16%
- viability, T/C [27]: 4.54%
- viability, T/C [28]: 3.78%
- viability, T/C [29]: 4.11%
- viability, T/C [30]: 4.01%

- IC50 (second compound 0.1 µM): 6.93 µM
- IC50 (second compound 0.316 µM): 6.97 µM
- IC50 (second compound 1 µM): 7.14 µM
- IC50 (second compound 3.16 µM): 7.14 µM
- IC50 (second compound 10 µM): 4.62 µM
SMILES: O=C(c1cc(Cc2n[nH]c(=O)c3ccccc23)ccc1F)N1CCN(C(=O)C2CC2)CC1 + CC(CO)NC(=O)c1cc(-c2ccc(Cl)cc2)nn(-c2cnn(C)c2)c1=O
- viability, T/C [1]: 98.1%
- viability, T/C [2]: 106%
- viability, T/C [3]: 110%
- viability, T/C [4]: 137%
- viability, T/C [5]: 98.1%
- viability, T/C [6]: 27.5%
- viability, T/C [7]: 102%
- viability, T/C [8]: 89.7%
- viability, T/C [9]: 112%
- viability, T/C [10]: 121%
- viability, T/C [11]: 95.5%
- viability, T/C [12]: 29.2%
- viability, T/C [13]: 96.4%
- viability, T/C [14]: 102%
- viability, T/C [15]: 105%
- viability, T/C [16]: 118%
- viability, T/C [17]: 104%
- viability, T/C [18]: 27.8%
- viability, T/C [19]: 94.7%
- viability, T/C [20]: 98.4%
- viability, T/C [21]: 111%
- viability, T/C [22]: 113%
- viability, T/C [23]: 91.9%
- viability, T/C [24]: 32.5%
- viability, T/C [25]: 98.1%
- viability, T/C [26]: 96%
- viability, T/C [27]: 109%
- viability, T/C [28]: 93.6%
- viability, T/C [29]: 62.1%
- viability, T/C [30]: 25.8%
